Experimental data as given in patent publication US4005206A, “[9H]-Pyrido-[3,4-b]-indoles” (Roussel-UCLAF, priority 1976, dated 1977).
Converted amounts (≈) assume the structure as drawn. Where a name gives a salt, the structure may show the parent alone.

Legend:
amytal-induced sleep = test: Potentialization of sleeping time (amytal); assay type: in vivo, female mice; settings: for minimal effective dose: Mus musculus, ip, 1 h, i.p. one hour before 80 mg/kg i.v. amytal, female mice 18 to 22 g, 25° C, read-out: DE50 (minimum dose for significantly prolonging the duration of sleep); for neurosedative activity (in words): conclusion from Table II
Experimental: 2. Potentialization of sleeping time
This test was effected with amytal (5-ethyl-5-isoamyl-barbituric acid) on groups of female mice weighing 18 to 22 g and held at 25° C for the duration of the test. The test products were administered intraperitoneally at different does one hour before the intravenous administration of 80 mg/kg of amytal and the time of sleep was recorded as the suspending time for the straighting reflex of the mice as negative.

[1] = test system: rigidity provoked by reserpine; test: Antagonism to reserpinic rigidity (electromyogram); assay type: in vivo, rats; parameters: key to Antagonism to reserpine rigidity: The results were expressed by an increasing number of + sign; ++: The results were expressed by an increasing number of + sign; settings: for Antagonism to reserpine rigidity: 20 mg/kg i.v., 30 minutes after 10 mg/kg i.v. reserpine, EMG, rats; for activity against reserpine rigidity (in words): dose of 20 mg/kg
Experimental: 3. Antagonism to reserpinic rigidity
This test was effected on rats using the procedure of Jurna I. [Arch. Pharmak. Exp. Path., Vol. 260 (1968), p. 80-88] wherein the electromyogram (EMG) caused by a dorsiflexion due to the shock of the foot by electrodes placed against the muscles of the front portion of the rear paw of the animal. A dose of 10 mg/kg of reserpine was intravenously administered and then 30 minutes later when the hypertonicity of the muscle was the maximum, the test product was intravenously administered at a dose of 20 mg/kg. The inhibition was observed by the electromyogram showing the antagonism exercised by the test product against the rigidity provoked by reserpine.

[2] = test system: serotonine-provoked contraction of guinea pig ileon; test: Antiserotonine activity on isolated ileon; assay type: cell-based; settings: for IC50: Cavia porcellus, isolated guinea pig ileon, Tyrode liquid 37° C, contact time one minute, read-out: IC50 (approximate 50% inhibiting concentration, contraction by serotonine)
Experimental: Serotonine provokes contraction of a certain number of smooth muscles and especially guinea pig ileon and antiserotonine activity is determined in vitro on the isolated ileon of the guinea pig immersed in oxygenated Tyrode liquid at 37° C. The activity of the antagonist is measured by the concentration thereof which after a contact time of one minute diminishes by about 50% the contraction of a portion of ileon when a standard dose of serotonine is added to the Tyrode liquid. The approximate 50% inhibiting concentration (IC50) was determined in micrograms per ml and the results are in Table IV.

Acute toxicity = settings: mouse, in vivo, ip; intraperitoneal, mice, mortality 48 hours later; read-out: Approximate DL50 (50% lethal dose)
Experimental: The 50% lethal dose (DL50) was determined by intraperitoneal administration of the products to mice and the mortality was determined 48 hours later.

[3] = test system: platelet aggregation caused by collagen; test: Platelet aggregation caused by collagen (turbidimetric method of Born); assay type: cell-based, rabbit; settings: for IC50: Oryctolagus cuniculus, rabbit platelet-rich plasma, 40 μg/ml collagen, read-out: IC50 (dose which inhibited by 50% the aggregation caused by collagen); for activity against platelet aggregation caused by collagen (in words): conclusion in words
Experimental: Platelet aggregation is effected with a Mustard aggregometer using the turbidimetric method of Born [J. Physiol., Vol. 168 (1963), p. 178-195] which consists of measuring the variation in transmission of a light ray or beam passing through a tube containing a plasma rich in platelets. When the aggregates are formed, the amount of light transmitted is greater and the optical density is diminished. The platelets used are obtained from rabbit plasma and the agent inducing the aggregation was 40 μg/ml of collagen. The 50% inhibiting concentration (IC50) was determined for each product which was the dose which inhibited by 50% the aggregation caused by collagen.

[4] = test system: toxicity of the amphetamine group (dexamphetamine sulfate); test: Antagonism toward amphetamine type (dexamphetamine-induced mortality); assay type: in vivo, male mice; settings: for ED50: Mus musculus, ip, i.p. one hour before 15 mg/kg i.p. dexamphetamine sulfate, mortality at 4 hours, male mice, read-out: DE50 (dose which reduced by 50% the number of dead animals); for antagonism with respect to the toxicity of the amphetamine group (in words): conclusion from Table I
Experimental: 1. Antagonism toward amphetamine type
The antagonism of the compounds with regard to amphetaminic group was studied on groups of 10 male mice which received intraperitoneally 15 mg/kg of dexamphetamine sulfate one hour after the intraperitoneal administration of the test compound.
The mortality per group was totally counted 4 hours after the administration of dexamphetamine sulfate and the DE50 dose which reduced by 50% the number of dead animals was determined as shown in Table I.

Row | SMILES | minimal effective dose (amytal-induced sleep) [mg/kg] | neurosedative activity (in words) (amytal-induced sleep) | Antagonism to reserpine rigidity [1] | activity against reserpine rigidity (in words) [1] | IC50 [2] [µg/mL] | LD50 at 48 h (Acute toxicity) [mg/kg] | IC50 [3] [µM] | ED50 [4] [mg/kg] | antagonism with respect to the toxicity of the amphetamine group (in words) [4] | activity against platelet aggregation caused by collagen (in words) [3] | antiserotonine activity (in words) ([2]; conclusion in words)
1 | COc1ccc2[nH]cc(CC3NCCc4c3[nH]c3ccc(OC)cc43)c2c1 (centres unmarked) [Example 1, 1-(5'-methoxy-3'-indolyl-methyl)-6-methoxy-1,2,3,4-tetrahydro[9H]-pyrido-[3,4-b]-indole-hydrochloride] | 10 | very important neurosedative activity | ++ | very active | 0.5 | 150 | – | – | – | – | –
2 | COc1ccc2[nH]cc(CC3NCCc4c3[nH]c3ccc(O)cc43)c2c1 (centres unmarked) [Example 2, 1-(5'-methoxy-3'-indolyl-methyl)-6-hydroxy-1,2,3,4-tetrahydro[9H]-pyrido-[3,4-b]-indole] | 50 | – | – | – | 0.5 to 1 (≈ 1.44 to 2.88 µM) | 200 | – | – | – | – | –
3 | COc1ccc2[nH]c3c(c2c1)CCNC3Cc1c[nH]c2ccccc12 (centres unmarked) [Example 3, 1-(3'-indolylmethyl)-6-methoxy-1,2,3,4-tetrahydro-[9H]-pyrido-[3,4-b]-indole hydrochloride] | – | – | + | – | 1 | 350 | – | – | – | – | –
4 | Clc1ccc2[nH]cc(CC3NCCc4c3[nH]c3ccccc43)c2c1 (centres unmarked) [Example 4, 1-(5'-chloro-3'-indolyl-methyl)-1,2,3,4-tetrahydro-[9H]-pyrido-[3,4-b]-indole hydrochloride] | 50 | – | – | – | – | 500 | – | – | – | – | –
5 | COc1ccc2[nH]cc(CC3NCCc4c3[nH]c3ccccc43)c2c1 (centres unmarked) [Example 5, 1-(5'-methoxy-3'-indolyl-methyl)-1,2,3,4-tetrahydro-[9H]pyrido-[3,4-b]-indole-hydrochloride] | 50 | – | ++ | very active | 2 | 150 | ~100 | – | – | – | –
6 | Oc1ccc2[nH]c3c(c2c1)CCNC3Cc1c[nH]c2ccccc12 (centres unmarked) [Example 6, 6-hydroxy-1-(3'-indolyl-methyl)-1,2,3,4-tetrahydro [9H]pyrido-[3,4-b]-indole-fumarate] | 20 | – | – | – | 2 (≈ 6.3 µM) | 150 | – | 35 | important antagonism | important activity | –
7 | Clc1ccc2[nH]c3c(c2c1)CCNC3Cc1c[nH]c2ccccc12 (centres unmarked) [Example 7, 6-chloro-1-(3'-indolylmethyl)-1,2,3,4-tetrahydro-[9H]-pyrido-[3,4-b]-indole] | 10 | very important neurosedative activity | – | – | 1 to 2 (≈ 2.98 to 5.96 µM) | 150 | – | 20 | important antagonism | – | –
8 | Oc1ccc2[nH]cc(CC3NCCc4c3[nH]c3ccccc43)c2c1 (centres unmarked) [Example 9, 1-(5'-hydroxy-3'-indolyl-methyl)-1,2,3,4-tetrahydro-[9H]-pyrido-[3,4-b]-indole-hydrochloride] | – | – | – | – | 0.1 to 0.2 | – | 1 | 50 | – | important activity | important antiserotonine activity
9 | c1ccc(COc2ccc3[nH]cc(CC4NCCc5c4[nH]c4ccc(OCc6ccccc6)cc54)c3c2)cc1 (centres unmarked) [Example 10, 1-(5'-benzyloxy-3' -indolylmethyl)-6-benzyloxy-1,2,3,4-tetrahydro-[9H]-pyrido-[3,4-b]-indole-hydrochloride] | – | – | – | – | – | 300 | – | – | – | – | –
